Results on 41 compounds are retold here after patent US20030203915A1, “Nitric oxide donors, compositions and methods of use related applications” (priority 2002, published 2003).

The structures appear in SMILES notation. Where a name gives a salt, the structure may show the parent alone. A value given as a limit tells only on which side of the number the result lay.

Test system in the first data set: not given
Assay: not given
Conditions: not given
As for `CC1(C)c2ccccc2C(C)(C)C1(CC#N)SN=O` [Example 4, 2-(1,1,3,3-Tetramethyl-2-(nitrosothio)indan-2-yl)ethanenitrile], the melting point was in the range of 67 to 69 °C.

Take `CC(C)(C)OC(=O)CC1(SN=O)C2CC3CC(C2)CC1C3` (stereo not drawn) [Example 29, tert-Butyl 2-(2-(nitrosothio)adamantan-2-yl)acetate]: the melting point lay in the range of 85 to 87 °C.

In the case of `CC(C)(CNC(=O)CSCC(=O)O)SN=O` [Example 5, 2-((N-(2-Methyl-2-(nitrosothio)propyl)carbamoyl)methylthio)acetic acid], the melting point lay within 47 to 51 °C.

Compound `CC(C)(CN1C(=O)NC(=O)C1=O)SN=O` [Example 21c, 1-(2-Methyl-2-(nitrosothio)propyl)imidazolidine-2,4,5-trione] returned a melting point of 80 to 82 °C.

Regarding `O=NSC1(C2OCCO2)CCCCC1` [Example 45b, 2(1-Nitrosomercaptocyclohex-1-yl)-1,3-dioxolane], the melting point lay in the range of 37 to 39 °C.

`CC(C)(CNC(=O)C(C)(C)CCC(=O)O)SN=O` [Example 27b, 4-Methyl-4-(N-(2-methyl-2-(nitrosothio)propyl)carbamoyl)pentanoic acid] gave a melting point of 93 to 96 °C.

`CC(C)(C)C(CC#N)(SN=O)C(C)(C)C` [Example 15, 3-(tert-Butyl)-4,4-dimethyl-3-(nitrosothio)pentanenitrile] showed a melting point of 92 to 93 °C.

`COc1ccc(C(=O)OCCC2(SN=O)C3CC4CC(C3)CC2C4)cc1` (stereo not drawn) [Example 31, 2-(2-(Nitrosothio)adamantan-2-yl)ethyl 4-methoxybenzoate] returned a melting point of 100 to 101 °C.

For the compound `CSc1nccc(NCC(C)(C)SN=O)n1` [Example 18c, (2-Methyl-2-(nitrosothio)propyl)(2-methylthiopyrimidin-4-yl)amine], the melting point lay in the range of 77 to 79 °C.

`CC12CCC(C1)C(C)(C)C2(CCO)SN=O` (stereo not drawn) [Example 7, 2-(1,3,3-Trimethyl-2-(nitrosothio)bicyclo(2.2.1)hept-2-yl)ethan-1-ol] registered a melting point of 81 to 85 °C.

The test system of the next data set is human coronary artery smooth muscle cells (CASMC). The experiment in a line: Vascular Smooth Muscle Cell (SMC) Antiproliferation Assay. It counts as cell-based. The conditions noted are these: CASMC; viable cell count (Trypan Blue) ~68 hr after compound addition; nitrosylated (nitrosothiol) compound; read-out: IC 50 μM, Nitrosylated Compound (inhibition of proliferation of vascular smooth muscle cells). Here is the method:
The cells used in this assay were-human coronary artery smooth-muscle cells (CASMC) supplied by Clonetics Corp. (San Diego, Calif.).
Stock solutions of the test compounds were prepared just prior to addition to the cells by dissolving in ethanol at a concentration of 1000 times the highest concentration to be assayed. This stock solution was diluted, as required, with ethanol to lower concentrations. […] Control cultures received 2 μL of ethanol per well (n=4). On the following morning, the cultures were examined microscopically and their condition recorded. On the third day after test compound addition (˜68 hr), the cultures were examined microscopically again and the viable cells counted with an hemacytometer following trypsinization with 0.25% trypsin-1 mM EDTA. Trypan Blue dye exclusion was used to discriminate between viable and dead cells.
For `C[N+](C)(CCNC(=O)CC1(SN=O)C2CC3CC(C2)CC1C3)Cc1ccccc1` (stereo not drawn) [Example 43c, N-(2-(Dimethylbenzylammonium)ethyl)-2-(2-(nitrosothio)adamantan-2-yl)acetamide chloride], the IC50 was 27 µM.

Consider `CC1(SN=O)C2CC3CC(C2)CC1C3` (stereo not drawn) [Example 25c, (2-Methyladamantan-2-yl)nitrosothio], for which the IC50 came to 33 µM.

For the compound `C[N+](C)(C)CCNC(=O)CC1(SN=O)C2CC3CC(C2)CC1C3` (stereo not drawn) [Example 44c, 2-(2-(Nitrosothio)adamantan-2-yl)-N-(2-(trimethylammonium)ethyl)-acetamide chloride], the IC50 worked out at 33.5 µM.

Regarding `O=NSC1(CC(=O)NCCO)C2CC3CC(C2)CC1C3` (stereo not drawn) [Example 34d, N-(2-Hydroxyethyl)-2-(2-(nitrosthio)adamantan-2-yl)acetamide], the IC50 amounted to 23 µM.

With `CC1(SN=O)CN2CCC1CC2` (stereo not drawn) [Example 36c, (3-Methylquinudidin-3-yl)nitrosothio hydrochlroide], the IC50 was found to be 22 µM.

On to `COP(=O)(CC(SN=O)(C1CC1)C1CC1)OC` [Example 47b, Dimethyl (2,2-dicyclopropyl-2-(nitrosothio)ethyl)phosphonate], for which the IC50 turned out to be 41 µM.

On to `O=NSC1(CO)CCN(C(=O)OCc2ccccc2)CC1` [Example 26e, Phenylmethyl 4-(hydroxymethyl)-4-(nitrosothio)piperidinecarboxylate], for which the IC50 turned out to be 33 µM.

The data set is the same for the next values; noted with them: CASMC; viable cell count (Trypan Blue) ~68 hr after compound addition; non-nitrosylated (sulfhydryl) compound.
As to `CC(C)(S)CN1C(=O)NC(=O)C1=O` [Example 21b, 1-(2-Methyl-2-sulfanylpropyl)imidazolidine-2,4,5-trione], the “IC 50 μM, Non-nitrosylated Compound (inhibition of proliferation of vascular smooth muscle cells)” value is recorded as “no inhibition”.

With `COP(=O)(CC(S)(C1CC1)C1CC1)OC` [Example 47a, Dimethyl (2,2-dicyclopropyl-2-mercaptoethyl)phosphonate], the “IC 50 μM, Non-nitrosylated Compound (inhibition of proliferation of vascular smooth muscle cells)” value is reported as “slight inhibition”.

On to `CC(C)(S)CNC(=O)NCC(C)(C)S` [Example 20c, N-(2-Methyl-2-sulfanylpropyl)((2-methyl-2-sulfanylpropyl)amino)carboxade], for which the “IC 50 μM, Non-nitrosylated Compound (inhibition of proliferation of vascular smooth muscle cells)” value was “slight inhibition”.

Consider `SC1(C2OCCCO2)CCCCC1` [Example 46a, 2-(1-Mercaptocyclohex-1-yl)-1,3-dioxane], for which the “IC 50 μM, Non-nitrosylated Compound (inhibition of proliferation of vascular smooth muscle cells)” value is “no inhibition”.

As for `C[N+](C)(C)CCNC(=O)CC1(S)C2CC3CC(C2)CC1C3.[Cl-]` (stereo not drawn) [Example 44b, 2-(2—Sulfanyladamantan-2-yl)-N-(2(trimethylammonium)ethyl)acetamide chloride], the “IC 50 μM, Non-nitrosylated Compound (inhibition of proliferation of vascular smooth muscle cells)” value is listed as “no inhibition”.

`CC1(S)CN2CCC1CC2.Cl` (stereo not drawn) [Example 36b, 3-Methylquinudidine-3-thiol hydrochloride]: the “IC 50 μM, Non-nitrosylated Compound (inhibition of proliferation of vascular smooth muscle cells)” value is “no inhibition”.

With `O=C(CC1(S)C2CC3CC(C2)CC1C3)NCCO` (stereo not drawn) [Example 34c, N-(2-Hydroxyethyl)-2-(2-sulfanyladamantan-2-yl)acetamide], the “IC 50 μM, Non-nitrosylated Compound (inhibition of proliferation of vascular smooth muscle cells)” value is given as “no inhibition”.

`NC(=O)CC1(S)C2CC3CC(C2)CC1C3` (stereo not drawn) [Example 12c, 2-(2-Sulfanyladamantan-2-yl)acetamide]: the “IC 50 μM, Non-nitrosylated Compound (inhibition of proliferation of vascular smooth muscle cells)” value is listed as “slight inhibition”.

`SC1(C2OCCO2)CCCCC1` [Example 45a, 2(1-Mercaptocyclohex-1-yl)-1,3-dioxolane]: the “IC 50 μM, Non-nitrosylated Compound (inhibition of proliferation of vascular smooth muscle cells)” value was “slight inhibition”.

Regarding `C[N+](C)(CCNC(=O)CC1(S)C2CC3CC(C2)CC1C3)Cc1ccccc1.[Cl-]` (stereo not drawn) [Example 43b, N-(2-(Dimethylbenzylammonium)ethyl)-2-(2-sulfanyladamantan-2-yl)acetamide chloride], the “IC 50 μM, Non-nitrosylated Compound (inhibition of proliferation of vascular smooth muscle cells)” value is “no inhibition”.

Take `CC(C)(S)CN` [Example 18a, 2-Mercapto-2-methyl-1-propylamine]: the “IC 50 μM, Non-nitrosylated Compound (inhibition of proliferation of vascular smooth muscle cells)” value is recorded as “slight inhibition”.

For the compound `O=C(OCc1ccccc1)N1CCC(S)(CO)CC1` [Example 26d, Phenylmethyl 4-(hydroxymethyl)-4-sulfanylpiperidinecarboxylate], the “IC 50 μM, Non-nitrosylated Compound (inhibition of proliferation of vascular smooth muscle cells)” value was “no inhibition”.

The same data set, now with this note: CASMC; viable cell count (Trypan Blue) ~68 hr after compound addition; non-nitrosylated (sulfhydryl) compound; read-out: IC 50 μM, Non-nitrosylated Compound (inhibition of proliferation of vascular smooth muscle cells).
With `CC(C)(S)CN1C(=O)C2C3C=CC(C3)C2C1=O` (stereo not drawn) [Example 11a, 4-Aza-4-(2-methyl-2-sulfanylpropy)tricyclo(5.2.1.0<2,6>)dec-8-ene-3,5-dione], the IC50 amounted to 80 µM.

As to `CC(C)(S)CNC(=O)C(C)(C)CCC(=O)O` [Example 27a], the IC50 is 78 µM.

Still in this data set, the particulars now being: Homo sapiens, 68 h, read-out: IC 50 μM, Nitrosylated Compound (inhibition of proliferation of vascular smooth muscle cells).
Take `O=NSC1(CC(=O)OCC(CO[N+](=O)[O-])(CO[N+](=O)[O-])CO[N+](=O)[O-])C2CC3CC(C2)CC1C3` (stereo not drawn) [Example 37, 2,2-Bis((nitrooxy)methyl)-3-(nitrooxy)propyl 2-(2-(nitrosothio)adamantan-2-yl)acetate]: the IC50 came out at 5 µM.

Staying with this data set, now noted: Homo sapiens; CASMC; viable cell count (Trypan Blue) ~68 hr after compound addition; nitrosylated (nitrosothiol) compound; read-out: IC 50 μM, Nitrosylated Compound (inhibition of proliferation of vascular smooth muscle cells).
As for `CC(C)(CNC(=O)NCC(C)(C)SN=O)SN=O` [Example 20d, N-(2-Methyl-2-(nitrosothio)propyl)((2-methyl-2-(nitrosothio)propyl)amino)carboxamide], the IC50 came to 28 µM.

Consider `CC(C)(C)OC(=O)CC1(SN=O)C2CC3CC(C2)CC1C3` (stereo not drawn) [Example 29, tert-Butyl 2-(2-(nitrosothio)adamantan-2-yl)acetate], for which the IC50 was 11 µM.

Turning to `CC(C)(CN1C(=O)NC(=O)C1=O)SN=O` [Example 21c, 1-(2-Methyl-2-(nitrosothio)propyl)imidazolidine-2,4,5-trione], the IC50 is 12 µM.

As to `O=NSC1(C2OCCO2)CCCCC1` [Example 45b, 2(1-Nitrosomercaptocyclohex-1-yl)-1,3-dioxolane], the IC50 worked out at 42 µM.

`NC(=O)CC1(SN=O)C2CC3CC(C2)CC1C3` (stereo not drawn) [Example 12d, 2-(2-(Nitrosothio)adamantan-2-yl)acetamide]: the IC50 turned out to be 12 µM.

On to `CC(C)(CNC(=O)C(C)(C)CCC(=O)O)SN=O` [Example 27b, 4-Methyl-4-(N-(2-methyl-2-(nitrosothio)propyl)carbamoyl)pentanoic acid], for which the IC50 stood at 34 µM.

As for `CC(C)(CNC(=O)C(C)(C)CO[N+](=O)[O-])SN=O` [Example 38b, 2,2-Dimethyl-N-(2-methyl-2-(nitrosothio)propyl)-3-(nitrooxy)propanamide], the IC50 was 50 µM.

With `CC(C)(CN1C(=O)C2C3C=CC(C3)C2C1=O)SN=O` (stereo not drawn) [Example 11b, 4-Aza-4-(2-methyl-2-(nitrosothio)propyl)tricyclo(5.2.1.0<2,6>)dec-8-ene-3,5-dione], the IC50 is 16 µM.

For `CSc1nccc(NCC(C)(C)S)n1` [Example 18b, 2-Methyl-1-((2-methylthiopyrimidin-4-yl)amino)propane-2-thiol], the IC50 was determined as 26 µM.

With `CC(C)(CN)SN=O` [Example 38a, 2-Methyl-2-(nitrosothio)propylamine hydrochloride], the IC50 was 40 to 60 µM.

Staying with this data set, now noted: Homo sapiens; CASMC; viable cell count (Trypan Blue) ~68 hr after compound addition; non-nitrosylated (sulfhydryl) compound; read-out: IC 50 μM, Non-nitrosylated Compound (inhibition of proliferation of vascular smooth muscle cells).
On to `CC(C)(S)CNC(=O)CCCC(=O)O` [Example 19a, 4-(N-(2-Methyl-2-sulfanylpropyl)carbamoyl)butanoic acid], for which the IC50 is over 200 µM.

In the case of `CC(C)(C)OC(=O)CC1(S)C2CC3CC(C2)CC1C3` (stereo not drawn) [Example 12a, tert-Butyl-2-(2-sulfanyladamant-2-yl)acetate], the IC50 worked out at 25 µM.

Consider `CC1(S)C2CC3CC(C2)CC1C3` (stereo not drawn) [Example 25b, 2-Methyladamantane-2-thiol], for which the IC50 is 65 µM.

The melting point is the temperature of the solid-liquid transition.
